Results: ChEMBL document CHEMBL1135701, “Discovery of a 3-amino-6-phenyl-pyridazine derivative as a new synthetic antineuroinflammatory compound” (J Med Chem, 2002)

Key:
[1] = target: Ca2+/calmodulin-dependent protein kinase II (CaM kinase II) (Rattus norvegicus, UniProt P11275+P08413+P15791+P11730); test: Inhibition of Calcium/calmodulin-dependent protein kinase type II (CaMKII) activity; type: protein assay
MAP kinase p38 = MAP kinase p38 (Homo sapiens, UniProt O15264+Q15759+Q16539+P53778); test: Inhibition of p38 Mitogen-activated protein kinase; type: protein assay
[2] = target: Myosin light chain kinase, smooth muscle (Gallus gallus, UniProt P11799); test: Inhibition of Myosin Light Chain kinase (MLCK)
Protein kinase C (PKC) = test: Inhibition of Protein kinase C (PKC) activity, Enzyme assay done using gamma-[32P]ATP and synthetic peptide substrates; set-up: species or system Rattus norvegicus
[3] = target: cAMP-dependent protein kinase A (Bos taurus, UniProt P00515+P00517+P05131+P31322); test: Inhibition of Protein kinase A (PKA) activity, Enzyme assay was done using gamma-[32P]ATP and synthetic peptide substrates; type: protein-complex assay

Myosin light chain kinase, smooth muscle, sequence (P11799 whole entry): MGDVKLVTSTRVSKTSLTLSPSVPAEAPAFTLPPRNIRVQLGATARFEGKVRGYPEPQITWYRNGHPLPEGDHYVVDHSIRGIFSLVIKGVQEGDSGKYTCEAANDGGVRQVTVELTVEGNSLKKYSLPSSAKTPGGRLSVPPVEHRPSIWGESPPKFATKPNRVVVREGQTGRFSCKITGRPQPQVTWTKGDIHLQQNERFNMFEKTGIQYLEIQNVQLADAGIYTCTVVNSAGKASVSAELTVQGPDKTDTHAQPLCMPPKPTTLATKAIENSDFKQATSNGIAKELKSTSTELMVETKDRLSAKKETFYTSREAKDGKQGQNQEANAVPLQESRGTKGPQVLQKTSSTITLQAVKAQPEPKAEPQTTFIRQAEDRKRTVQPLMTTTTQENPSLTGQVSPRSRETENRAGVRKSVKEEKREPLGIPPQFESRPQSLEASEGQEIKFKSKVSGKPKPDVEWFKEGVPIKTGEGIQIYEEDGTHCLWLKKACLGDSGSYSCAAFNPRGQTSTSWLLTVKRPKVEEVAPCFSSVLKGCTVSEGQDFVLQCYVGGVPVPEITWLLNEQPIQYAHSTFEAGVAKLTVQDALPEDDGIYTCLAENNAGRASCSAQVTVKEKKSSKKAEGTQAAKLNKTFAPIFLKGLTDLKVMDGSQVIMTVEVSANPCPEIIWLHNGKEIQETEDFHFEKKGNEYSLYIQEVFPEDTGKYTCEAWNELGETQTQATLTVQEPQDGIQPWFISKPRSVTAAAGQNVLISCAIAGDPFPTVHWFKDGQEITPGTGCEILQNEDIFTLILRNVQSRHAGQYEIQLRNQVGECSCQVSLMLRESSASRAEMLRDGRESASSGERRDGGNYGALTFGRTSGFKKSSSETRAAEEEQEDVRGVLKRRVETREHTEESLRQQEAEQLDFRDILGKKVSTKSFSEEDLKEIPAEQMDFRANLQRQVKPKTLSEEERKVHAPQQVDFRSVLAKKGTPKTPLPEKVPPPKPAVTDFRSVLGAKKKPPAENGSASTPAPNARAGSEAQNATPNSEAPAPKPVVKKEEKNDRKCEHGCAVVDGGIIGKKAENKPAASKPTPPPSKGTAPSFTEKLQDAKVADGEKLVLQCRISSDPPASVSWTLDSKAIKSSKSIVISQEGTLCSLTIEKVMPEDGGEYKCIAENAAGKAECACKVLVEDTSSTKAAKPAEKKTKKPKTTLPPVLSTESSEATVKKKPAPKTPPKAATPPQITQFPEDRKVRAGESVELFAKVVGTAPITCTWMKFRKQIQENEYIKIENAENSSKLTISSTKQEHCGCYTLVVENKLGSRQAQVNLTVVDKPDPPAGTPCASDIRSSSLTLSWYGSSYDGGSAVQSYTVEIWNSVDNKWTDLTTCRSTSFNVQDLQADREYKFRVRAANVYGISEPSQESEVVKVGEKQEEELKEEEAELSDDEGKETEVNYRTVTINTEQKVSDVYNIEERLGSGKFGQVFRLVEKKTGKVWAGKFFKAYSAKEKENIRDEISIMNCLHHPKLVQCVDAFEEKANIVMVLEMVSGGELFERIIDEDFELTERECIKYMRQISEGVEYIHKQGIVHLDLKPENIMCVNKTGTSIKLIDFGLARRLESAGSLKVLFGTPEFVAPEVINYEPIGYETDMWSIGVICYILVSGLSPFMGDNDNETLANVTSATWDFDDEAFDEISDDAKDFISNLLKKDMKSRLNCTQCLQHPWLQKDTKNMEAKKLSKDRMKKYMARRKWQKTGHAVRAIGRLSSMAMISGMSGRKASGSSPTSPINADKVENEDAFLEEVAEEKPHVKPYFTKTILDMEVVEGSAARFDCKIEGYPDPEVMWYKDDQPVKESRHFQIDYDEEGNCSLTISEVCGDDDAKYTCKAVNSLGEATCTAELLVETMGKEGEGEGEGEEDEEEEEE

Compound | IC50 [1] | IC50 (MAP kinase p38) | IC50 [2] | IC50 (Protein kinase C (PKC)) | IC50 [3]
N=c1cc2c(nn1CCCCCCCCCCC(=O)N1CCN(c3ncccn3)CC1)-c1ccccc1CC2 | 9.7 µM | > 100 µM | > 100 µM | > 100 µM | > 100 µM
COc1ccc(S(=O)(=O)N(CCO)c2ccccc2CN(C)C/C=C/c2ccc(Cl)cc2)cc1 | 8.4 µM | > 100 µM |  | > 100 µM | > 100 µM
